Laboratory results published in ChEMBL document CHEMBL6120973 (J Med Chem, 2024).
pEC50, pIC50: −log10 of the molar value.

How the values were obtained:
[1] = system: Human immunodeficiency virus 1; assay: Antiviral activity against HIV-1 harboring RT Y181C mutant infected in human MT4 cells assessed as protection against virus-induced cytopathic effect incubated for 5 days by MTT assay; format: functional, organism-based; conditions: Human immunodeficiency virus 1, MT4, 120 h
[2] = Metabolic stability in rat liver microsomes assessed as half-life at 0.1 uM preincubated for 10 mins followed by NADPH addition and measured upto 60 mins by LC-MS/MS analysis; format: ADME, Microsome; conditions: time < 70 min
[3] = system: Human immunodeficiency virus 1; assay: Antiviral activity against HIV-1 harboring RT E138K mutant infected in human MT4 cells assessed as protection against virus-induced cytopathic effect incubated for 5 days by MTT assay; format: functional, organism-based; conditions: Human immunodeficiency virus 1, MT4, 120 h
[4] = Metabolic stability in human liver microsomes assessed as half-life at 0.1 uM preincubated for 10 mins followed by NADPH addition and measured upto 60 mins by LC-MS/MS analysis; format: ADME, Microsome; conditions: time < 70 min
[5] = system: Human immunodeficiency virus 1; assay: Antiviral activity against HIV-1 harboring RT F227L/V106A double mutant infected in human MT4 cells assessed as protection against virus-induced cytopathic effect incubated for 5 days by MTT assay; format: functional, organism-based; conditions: Human immunodeficiency virus 1, MT4, 120 h
[6] = system: Human immunodeficiency virus 1; assay: Antiviral activity against HIV-1 harboring RT K103N/Y181C double mutant infected in human MT4 cells assessed as protection against virus-induced cytopathic effect incubated for 5 days by MTT assay; format: functional, organism-based; conditions: Human immunodeficiency virus 1, MT4, 120 h
[7] = Cytotoxicity against human MT4 cells assessed as reduction in cell viability measured after 5 days by MTT assay
[8] = system: Human immunodeficiency virus 1; assay: Antiviral activity against HIV-1 harboring RT Y188L mutant infected in human MT4 cells assessed as protection against virus-induced cytopathic effect incubated for 5 days by MTT assay; format: functional, organism-based; conditions: Human immunodeficiency virus 1, MT4, 120 h
[9] = system: Human immunodeficiency virus 1; assay: Antiviral activity against HIV-1 harboring RT L100I mutant infected in human MT4 cells assessed as protection against virus-induced cytopathic effect incubated for 5 days by MTT assay; format: functional, organism-based; conditions: Human immunodeficiency virus 1, MT4, 120 h
[10] = system: Human immunodeficiency virus 1; assay: Antiviral activity against wildtype HIV-1 IIIB infected in human MT4 cells assessed as protection against virus-induced cytopathic effect incubated for 5 days by MTT assay; format: functional, organism-based; conditions: Human immunodeficiency virus 1, IIIB, MT4, 120 h
[11] = biological target: Human immunodeficiency virus type 1 reverse transcriptase (Human immunodeficiency virus 1, UniProt Q72547); assay: Inhibition of recombinant wild type HIV-1 Reverse transcriptase incubated for 40 mins by Pico-green reagent based fluorescence analysis
[12] = system: Human immunodeficiency virus 1; assay: Antiviral activity against HIV-1 harboring RT K103N mutant infected in human MT4 cells assessed as protection against virus-induced cytopathic effect incubated for 5 days by MTT assay; format: functional, organism-based; conditions: Human immunodeficiency virus 1, MT4, 120 h
[13] = Selectivity index, ratio of CC50 for human MT4 cells to EC50 for wild type HIV-1 IIIB infected in human MT4 cellS; conditions: MT4 cells
[14] = Cmax in male Sprague-Dawley rat at 1 mg/kg, iv measured after 24 hrs by LC-MS analysis; format: ADME, organism-based; conditions: in vivo
[15] = AUC (0 to infinity) in male Sprague-Dawley rat at 1 mg/kg, iv measured after 24 hrs by LC-MS analysis; format: ADME, organism-based; conditions: in vivo
[16] = Solubility of compound in phosphate buffer at pH 7.4 measured after 24 hrs by HPLC analysis; format: physicochemical
[17] = Solubility of compound in phosphate buffer at pH 7.0 measured after 24 hrs by HPLC analysis; format: physicochemical
[18] = AUC (0 to t) in male Sprague-Dawley rat at 1 mg/kg, iv measured after 24 hrs by LC-MS analysis; format: ADME, organism-based; conditions: in vivo
[19] = Tmax in male Sprague-Dawley rat at 10 mg/kg, po measured after 24 hrs by LC-MS analysis; format: ADME, organism-based; conditions: in vivo
[20] = MRT (0 to infinity) in male Sprague-Dawley rat at 1 mg/kg, iv measured after 24 hrs by LC-MS analysis; format: ADME, organism-based; conditions: in vivo
[21] = Solubility of compound in Watson's distilled pure water measured after 24 hrs by HPLC analysis; format: physicochemical
[22] = AUC (0 to infinity) in male Sprague-Dawley rat at 10 mg/kg, po measured after 24 hrs by LC-MS analysis; format: ADME, organism-based; conditions: in vivo
[23] = Clearance in male Sprague-Dawley rat at 1 mg/kg, iv measured after 24 hrs by LC-MS analysis; format: ADME, organism-based; conditions: in vivo
[24] = AUC (0 to t) in male Sprague-Dawley rat at 10 mg/kg, po measured after 24 hrs by LC-MS analysis; format: ADME, organism-based; conditions: in vivo
[25] = Half-life in male Sprague-Dawley rat at 1 mg/kg, iv measured after 24 hrs by LC-MS analysis; format: ADME, organism-based; conditions: in vivo
[26] = MRT (0 to t) in male Sprague-Dawley rat at 10 mg/kg, po measured after 24 hrs by LC-MS analysis; format: ADME, organism-based; conditions: in vivo
[27] = Solubility of compound in phosphate buffer at pH 2.0 measured after 24 hrs by HPLC analysis; format: physicochemical
[28] = MRT (0 to infinity) in male Sprague-Dawley rat at 10 mg/kg, po measured after 24 hrs by LC-MS analysis; format: ADME, organism-based; conditions: in vivo
[29] = Cmax in male Sprague-Dawley rat at 10 mg/kg, po measured after 24 hrs by LC-MS analysis; format: ADME, organism-based; conditions: in vivo
[30] = MRT (0 to t) in male Sprague-Dawley rat at 1 mg/kg, iv measured after 24 hrs by LC-MS analysis; format: ADME, organism-based; conditions: in vivo
[31] = Oral bioavailability in male Sprague-Dawley rat at 10 mg/kg measured after 24 hrs by LC-MS analysis; format: ADME, organism-based; conditions: in vivo
[32] = Half-life in male Sprague-Dawley rat at 10 mg/kg, po measured after 24 hrs by LC-MS analysis; format: ADME, organism-based; conditions: in vivo
[33] = Tmax in male Sprague-Dawley rat at 1 mg/kg, iv measured after 24 hrs by LC-MS analysis; format: ADME, organism-based; conditions: in vivo
[34] = Metabolic stability in dog liver microsomes assessed as half-life at 0.1 uM preincubated for 10 mins followed by NADPH addition and measured upto 60 mins by LC-MS/MS analysis; format: ADME, Canis lupus familiaris, Microsome; conditions: time < 70 min

| Compound | pEC50 [1] | pEC50 [3] | pEC50 [5] | pEC50 [6] | pEC50 [8] | pEC50 [9] | pEC50 [10] | pIC50 [11] | pEC50 [12] | selectivity ratio [13] | CC50 at 120 h ([7]; MT4 cells) [µM] | also measured |
| --- | --- | --- | --- | --- | --- | --- | --- | --- | --- | --- | --- | --- |
| N#Cc1ccc(Nc2nccc(Nc3c(F)cc(-c4ccncc4)cc3F)n2)cc1 | 8.22 | 8.00 | 6.52 | 7.19 | 7.24 | 8.40 | 8.70 | 7.51 | 8.70 |  |  | half-life at 0.1 µM [2]: 13 min; half-life at 0.1 µM [4]: 9.6 min; CC50 at 120 h ([7]; mt4): 6 µM |
| Cc1cc(-c2ccncc2)cc(C)c1Nc1nc(Nc2ccc(C#N)cc2)ncc1-c1ccnc(Cl)c1 | 7.25 | 7.59 | 5.75 | 6.22 | 7.08 | 7.26 | 8.22 | 7.01 | 7.72 | 27300 | 158 |  |
| Cc1cc(-c2ccncc2)cc(C)c1Nc1nc(Nc2ccc(C#N)cc2)ncc1-c1cncc(N)c1 | 7.29 | 7.89 | 6.49 | 6.42 | 7.20 | 7.54 | 8.22 | 7.14 | 8.15 | 1050 | 6.38 |  |
| Cc1cc(-c2ccncc2)cc(C)c1Nc1nc(Nc2ccc(C#N)cc2)ncc1-c1ccc(F)nc1 | 7.32 | 7.85 | 5.93 | 6.32 | 7.12 | 7.29 | 8.05 | 7.07 | 8.05 | 5530 | 48.4 |  |
| Cc1cc(-c2ccncc2)cc(C)c1Nc1nc(Nc2ccc(C#N)cc2)ncc1-c1ccc(N)nc1 | 7.39 | 7.96 | 5.94 | 6.81 | 7.30 | 7.41 | 8.10 | 7.03 | 7.96 | 575 | 4.87 |  |
| COc1cc(-c2cnc(Nc3ccc(C#N)cc3)nc2Nc2c(C)cc(-c3ccncc3)cc2C)ccn1 | 7.21 | 7.80 | 6.21 | 6.23 | 7.04 | 7.29 | 8.05 | 6.94 | 7.68 | 6750 | 59.9 |  |
| Cc1ccc(-c2cnc(Nc3ccc(C#N)cc3)nc2Nc2c(C)cc(-c3ccncc3)cc2C)cn1 | 7.33 | 8.15 | 6.30 | 6.40 | 7.27 | 7.31 | 8.30 | 6.88 | 8.22 | 38900 | 198 |  |
| Cc1cc(-c2ccncc2)cc(C)c1Nc1nc(Nc2ccc(C#N)cc2)ncc1-c1cncc(Cl)c1 | 7.11 | 7.35 | 5.82 | 6.01 | 6.92 | 6.93 | 8.10 | 6.71 | 7.43 | > 32800 | > 248 |  |
| Cc1cc(-c2ccncc2)cc(C)c1Nc1nc(Nc2ccc(C#N)cc2)ncc1-c1ccnc(F)c1 | 7.35 | 8.10 | 5.86 | 6.37 | 7.35 | 7.03 | 8.10 | 6.95 | 8.15 | > 31500 | > 256 |  |
| Cc1cc(-c2ccncc2)cc(C)c1Nc1nc(Nc2ccc(C#N)cc2)ncc1-c1cn[nH]c1.Cl |  |  |  |  |  |  |  |  |  |  |  | Cmax [14]: 572 ng/mL; AUC(0-inf) [15]: 605 ng·h/mL; solubility at 24 h [16]: < 1 µg/mL; solubility at 24 h [17]: < 1 µg/mL; AUC(0-t) at 24 h [18]: 600 ng·h/mL; Tmax [19]: 1 h; MRT inf [20]: 1.14 h; solubility at 24 h [21]: 366 µg/mL; AUC(0-inf) [22]: 3470 ng·h/mL; clearance [23]: 30.3 mL/min/kg; AUC(0-t) at 24 h [24]: 3460 ng·h/mL; half-life [25]: 50.4 min; MRT last at 24 h [26]: 3.04 h; solubility at 24 h [27]: 782 µg/mL; MRT inf [28]: 3.14 h; Cmax [29]: 862 ng/mL; MRT last at 24 h [30]: 1.1 h; bioavailability [31]: 57.4%; half-life [32]: 175 min; Tmax [33]: 4.8 min |
| Cc1cc(C#N)cc(C)c1Oc1nc(Nc2ccc(C#N)cc2)nc(N)c1Br [ETRAVIRINE] | 7.89 |  | 7.92 | 7.37 | 7.77 | 8.40 |  |  |  |  | > 4.61 | half-life at 0.1 µM [2]: 13.5 min; solubility at 24 h [16]: < 1 µg/mL; solubility at 24 h [17]: < 1 µg/mL; half-life at 0.1 µM [4]: 64.1 min; solubility at 24 h [21]: < 1 µg/mL; half-life at 0.1 µM [34]: 152 min |
| Cc1cc(/C=C/C#N)cc(C)c1Nc1ccnc(Nc2ccc(C#N)cc2)n1 [RILPIVIRINE] |  |  |  |  |  |  | 8.40 |  |  |  | > 6.35 | half-life at 0.1 µM [2]: 7.29 min; half-life at 0.1 µM [4]: 16 min; half-life at 0.1 µM [34]: 79.3 min |
